Each block holds one compound with its values, some of them ahead of it.
Experiments:
[1] = Stability of dimethylchlorourea aqueous solutions at different pH and temperature by UV-Vis Spectroscopy; type: physicochemical
Description: The stability of dimethylchlorourea was also examined under a variety of different conditions including pH and temperature. […] In the following table the initial concentration C0, the final concentration Cf, the final time tf and the half life t½, are given.

Pseudomonas aeruginosa = test: Log10 reduction of viable P. aeruginosa in PBS after exposure to biocide (Example 8); type: cell-based; details: average of three
Procedure: The efficacy of dimethyl monochlorourea (DMCU) as a biocide, as synthesized in Example 5, was tested against the bacterium Pseudomonas aeruginosa. The Hach DPD chlorine test (Hach Company, Loveland, Colo.) was used to measure the total available chlorine concentrations of each biocide tested. Concentrations are reported in units of milligrams per liter as Cl2. P. aeruginosa was grown overnight in Trypticase Soy Broth at 37° C. The culture was split into aliquots of equal volume and suspended in physiologically buffered saline (PBS). […] The cultures were then evaluated by measuring viable cell counts after exposure to the biocides.

[2] = Stability in the presence of chlorine demand (0.1× nutrient broth), total chlorine by Hach DPD; type: physicochemical; details: 0.1× nutrient broth, initial 5 ppm chlorine, 37° C.
Procedure: This can be seen in Table 4 below. 20 mL aliquots of a 0.1× nutrient broth were used and the active species added such that the initial concentration of each was equivalent to 5 ppm chlorine as measured by the Hach. To prepare the nutrient broth Difco Nutrient Broth (8 grams) was dissolved in 1 L of deionized water, and subsequently diluted to 0.1× of the initial concentration prior to being autoclaved at 121° C. for 15 minutes. 100 mL solutions of each of the actives were made, and the concentration was measured using standard Hach test procedures on a BetzDearborn DR 2010 Spectrophotometer. At each time point a 1:10 dilution of the solution in DI water was made and placed in the spectrophotometer cell. Hach Permachem DPD Total Chlorine Reagent was added and the cell was placed into the spectrophotometer. The ppm of Cl2 was measured at 0, 1, 3, 6, 24, and 48 hours. A fresh dilution was made at each time point, if necessary, and the bottles of solution were placed in a shaking incubator at 37° C. in between runs. Dimethyl monochlorourea is notated as DMCU. Bis-hydroxymethyl chlorourea is BHMCU.

half life t½ ([1]; 50 ° C., pH 3): 4 days
final concentration Cf ([1]; 50 ° C., pH 3, C0 575 ppm, tf 1 Days): 491 ppm
half life t½ ([1]; 50 ° C., pH 5): 82 days
final concentration Cf ([1]; 50 ° C., pH 5, C0 576 ppm, tf 3 Days): 561 ppm
half life t½ ([1]; 50 ° C., pH 12): 0.417 days
final concentration Cf ([1]; 50 ° C., pH 12, C0 478 ppm, tf 6 Hours): 315 ppm
half life t½ ([1]; 75 ° C., pH 3): 0.75 days
final concentration Cf ([1]; 75 ° C., pH 3, C0 576 ppm, tf 24 Hours): 231 ppm
half life t½ ([1]; 75 ° C., pH 7): 14 days
final concentration Cf ([1]; 75 ° C., pH 7, C0 590 ppm, tf 1 Days): 562 ppm
half life t½ ([1]; 75 ° C., pH 12): 0.17 days
final concentration Cf ([1]; 75 ° C., pH 12, C0 423 ppm, tf 24 Hours): 4 ppm
half life t½ ([1]; RT, pH 2): 41 days
final concentration Cf ([1]; RT, pH 2, C0 393 ppm, tf 34 Days): 220 ppm
half life t½ ([1]; RT, pH 3): 54 days
final concentration Cf ([1]; RT, pH 3, C0 577 ppm, tf 28 Days): 402 ppm
half life t½ ([1]; RT, pH 5): 84 days
final concentration Cf ([1]; RT, pH 5, C0 603 ppm, tf 34 Days): 456 ppm
half life t½ ([1]; RT, pH 7): 104 days
final concentration Cf ([1]; RT, pH 7, C0 590 ppm, tf 33 Days): 474 ppm
half life t½ ([1]; RT, pH 9): 106 days
final concentration Cf ([1]; RT, pH 9, C0 589 ppm, tf 33 Days): 475 ppm
half life t½ ([1]; RT, pH 12): 2 days
final concentration Cf ([1]; RT, pH 12, C0 423 ppm, tf 1 Days): 280 ppm
half-life ([1]; aqueous solution, acidic and basic conditions at room temperature, read-out: half lives): 2 to 100 days
SMILES: CNC(=O)N(C)Cl [DMCU, N-chloro-N,N′-dimethylurea]
log10 reduction of viable cfu/mL (LR) (Pseudomonas aeruginosa; 0.3 mg/L): 0.45 log10
log10 reduction of viable cfu/mL (LR) (Pseudomonas aeruginosa; 0.9 mg/L): 1.49 log10
log10 reduction of viable cfu/mL (LR) (Pseudomonas aeruginosa; 1.5 mg/L): 3.99 log10

SMILES: NCl [monochloramine]
Stability: total chlorine remaining relative to initial ([2]; 0 hr): 100%
Stability: total chlorine remaining relative to initial ([2]; 3 hrs): 24%
Stability: total chlorine remaining relative to initial ([2]; 6 hrs): 6%
Stability: total chlorine remaining relative to initial ([2]; 24 hrs): 2%
Stability: total chlorine remaining relative to initial ([2]; 48 hrs): 1%

From patent publication US8420012B2, “Use of monochlorourea to treat industrial waters” (Hercules Incorporated, priority 2009, dated 2013)
